Test results reported in patent US5905068A, “Retroviral protease inhibiting compounds” (Abbott Laboratories, priority 1996, dated 1999).

How the values were obtained:
HIVIIIB = assay: Antiviral Activity: anti-HIV activity in MT4 cells infected with HIVIIIB (MTT); assay type: cell-based; settings: Human immunodeficiency virus 1, 120 h, MOI 0.003, 5 days, n=four duplicate determinations
Description: (§1) The anti-HIV activity of the compound of the invention was determined in MF4 cells according to the following procedure: MT4 cells were infected with cell-free supernatant of HIVIIIB (previously frozen with known 50% tissue culture infectious dose (TCID50) at 0.003 multiplicity of infection (MOI)) for one hour. After one hour infection, cells were washed twice to remove residual viruses, resuspended in culture media and seeded into 96-well tissue culture plates at 1×10^4 cells per well with various half-log dilutions of compounds. Uninfected cells were included a toxicity and cell controls. RPMI 1640 media (GIBCO) with 10% fetal bovine serum was used as culture media. Various concentrations (50%, 25% and 12.5%) of human serum (SIGMA) were added to culture media resulting in final concentrations of 60%, 35% and 22.5% total serum. All assay plates were incubated in a 37° C. incubator for 5 days. The compound 3-[4,5-dimethylthiozol-2-yl]-2,5-diphenyltetrazolium bromide (MTT, SIGMA, 5 mg .mL stock in PBS) was then added to all wells at 25 μL per well and incubated for 4 hours. SDS (20%) with 0.02N HCl in water was added at 50 μL per well to lyse cells. Plates were incubated overnight for complete cell lysis and then read on a microtiter plate reader at 570/650 nm wavelengths to determine cell optical density (O.D.). Raw data was analysed for percent inhibition by the following formula: [formula]
The 50% effective concentration (EC50) was calculated by the median effect equation (Chou, 1975, Proc. Int. Cong. Pharmacol. 6th p. 619) to determine the efficacy of compound. The 50% cytotoxicity concentration (CTC50) was calculated using uninfected MT4 cells
Under these conditions, the data of Table 2 was obtained (n=four duplicate determinations).

[1] = Cytotoxicity in uninfected MT4 cells (MTT); assay type: cell-based; settings: human, 5 days, n=four duplicate determinations, read-out: CTC50 (50% cytotoxicity concentration)
Description: as §1, with “RPMI 1640 media (GIBCO) with 10% fetal bovine serum was used as culture media. Various concentrations (50%, 25% and 12.5%) of human serum (SIGMA) were added to culture media resulting in final concentrations of 60%, 35% and 22.5% total serum.” left out, “The compound 3-[4,5-dimethylthiozol-2-yl]-2,5-diphenyltetrazolium bromide (MTT, SIGMA, 5 mg .mL stock in PBS) was then added to all wells at 25 μL per well and incubated for 4 hours.” left out
The 50% cytotoxicity concentration (CTC50) was calculated using uninfected MT4 cells

HIV-1 protease = HIV-1 protease (Human immunodeficiency virus type 1 group M subtype B, UniProt P04585); assay: Fluorogenic Assay for Screening Inhibitors of HIV Protease; settings: pH 4.5
Description: The inhibitory potency of the compounds of the invention were determined by the following method: The compound of the invention was dissolved in DMSO and a small aliquot further diluted with DMSO to 100 times the final concentration desired for testing. The reaction was carried out in a 6×50 mm tube in a total volume of 300 microliters. […] After addition of inhibitor, the reaction mixture was placed in the fluorometer cell holder and incubated at 30° C. for several minutes. The reaction was initiated by the addition of a small aliquot of cold HIV protease. The fluorescence intensity (excitation 340 nm, emission 490 nm) was recorded as a function of time. The reaction rate was determined for the first six to eight minutes. The observed rate was directly proportional to the moles of substrate cleaved per unit time. The percent inhibition was calculated according to the equation: 100×(1-(rate of inhibitor)/(rate in absence of inhibitor)). As a control, duplicate reactions were performed identically as above but without the addition of an inhibitor compound.

| Structure (SMILES) | EC50 (HIVIIIB) | CC50 at 120 h [1] | inhibition at 0.0005 µM (HIV-1 protease) | inhibition at 0.001 µM (HIV-1 protease) | inhibition at 0.0014 µM (HIV-1 protease) |
| --- | --- | --- | --- | --- | --- |
| CC(C)[C@H](NC(=O)OCc1cncs1)C(=O)N[C@@H](Cc1ccccc1)C[C@H](O)[C@H](Cc1ccccc1)NC(=O)O[C@H]1CO[C@H]2OCC[C@H]21 [Example 42, (2S,3S,5S)-5-(N-(N-((5-Thiazolyl)methoxycarbonyl)-L-valinyl)amino)-2-((3R,3aS,6aR)-bis-tetrahydrofuran-3-yl-oxycarbonyl)amino-1,6-diphenyl-3-hydroxyhexane] | 0.07 µM | > 100 µM | 80% | – | – |
| CC(C)[C@@H](NC(=O)OCc1cncs1)C(=O)N[C@@H](Cc1ccccc1)C[C@H](O)[C@H](Cc1ccccc1)NC(=O)O[C@H]1CO[C@H]2OCC[C@H]21 [Example 43, (2S,3S,5S)-5-(N-(N-((5-Thiazolyl)methoxycarbonyl)-D-valinyl)amino)-2-((3R,3aS,6aR)-bis-tetrahydrofuran-3-yl-oxycarbonyl)amino-1,6-diphenyl-3-hydroxyhexane] | 0.27 µM | > 100 µM | 42% | – | – |
| CC(C)[C@@H](NC(=O)N(C)Cc1cncs1)C(=O)N[C@@H](Cc1ccccc1)C[C@H](O)[C@H](Cc1ccccc1)NC(=O)O[C@H]1CO[C@H]2OCC[C@H]21 [Example 44, (2S,3S,5S)-5-(N-(N-((N-Methyl-N-((5-thiazolyl)methyl)amino)carbonyl)-D-valinyl)amino)-2-((3R,3aS,6aR)-bis-tetrahydrofuran-3-yl-oxycarbonyl)amino-1,6-diphenyl-3-hydroxyhexane] | 0.37 µM | > 100 µM | 72% | – | – |
| CC(C)[C@H](NC(=O)N(C)Cc1cncs1)C(=O)N[C@@H](Cc1ccccc1)C[C@H](O)[C@H](Cc1ccccc1)NC(=O)O[C@H]1CO[C@H]2OCC[C@H]21 [Example 45, (2S,3S,5S)-5-(N-(N-((N-Methyl-N-((5-thiazolyl)methyl)amino)carbonyl)-L-valinyl)amino)-2-((3R,3aS,6aR)-bis-tetrahydrofuran-3-yl-oxycarbonyl)amino-1,6-diphenyl-3-hydroxyhexane] | 0.45 µM | > 100 µM | 56% | – | – |
| CC(C)c1nc(CN(C)C(=O)N[C@H](C(=O)N[C@@H](Cc2ccccc2)[C@@H](O)C[C@H](Cc2ccccc2)NC(=O)O[C@H]2CO[C@H]3OCC[C@H]32)C(C)C)cs1 [Example 46, (2S,3S,5S)-2-(N-(N-((N-Methyl-N-((2-isopropyl-4-thiazolyl)methyl)amino)carbonyl)-L-valinyl)amino)-5-((3R,3aS,6aR)-bis-tetrahydrofuran-3-yl-oxycarbonyl)amino-1,6-diphenyl-3-hydroxyhexane] | 0.034 µM | 56.2 µM | 74% | – | – |
| Cc1nc(CN(C)C(=O)N[C@H](C(=O)N[C@@H](Cc2ccccc2)C[C@H](O)[C@H](Cc2ccccc2)NC(=O)O[C@@H]2CO[C@@H]3OCC[C@@H]32)C(C)C)cs1 [Example 47, (2S,3S,5S)-5-(N-(N-((N-Methyl-N-((2-methyl-4-thiazolyl)methyl)amino)carbonyl)-L-valinyl)amino)-2-((3S,3aR,6aS)-bis-tetrahydrofuran-3-yl-oxycarbonyl)amino-1,6-diphenyl-3-hydroxyhexane] | 0.055 µM | > 100 µM | 82% | – | – |
| CC(C)c1nc(CN(C)C(=O)N[C@H](C(=O)N[C@@H](Cc2ccccc2)C[C@H](O)[C@H](Cc2ccccc2)NC(=O)O[C@@H]2CO[C@@H]3OCC[C@@H]32)C(C)C)cs1 [Example 48, (2S,3S,5S)-5-(N-(N-((N-Methyl-N-((2-isopropyl-4-thiazolyl)methyl)amino)carbonyl)-L-valinyl)amino)-2-((3S,3aR,6aS)-bis-tetrahydrofuran-3-yl-oxycarbonyl)amino-1,6-diphenyl-3-hydroxyhexane] | 0.011 µM | 46.6 µM | 80% | – | – |
| Cc1nc(CN(C)C(=O)N[C@H](C(=O)N[C@@H](Cc2ccccc2)C[C@H](O)[C@H](Cc2ccccc2)NC(=O)O[C@H]2CO[C@H]3OCC[C@H]32)C(C)C)cs1 [Example 49, (2S,3S,5S)-5-(N-(N-((N-Methyl-N-((2-methyl-4-thiazolyl)methyl)amino)carbonyl)-L-valinyl)amino)-2-((3R,3aS,6aR)-bis-tetrahydrofuran-3-yl-oxycarbonyl)amino-1,6-diphenyl-3-hydroxyhexane] | 0.042 µM | > 100 µM | 74% | – | – |
| CC(C)c1nc(CN(C)C(=O)N[C@H](C(=O)N[C@@H](Cc2ccccc2)C[C@H](O)[C@H](Cc2ccccc2)NC(=O)O[C@H]2CCOC2)C(C)C)cs1 [Example 50, (2S,3S,5S)-5-(N-(N-((N-Methyl-N-((2-isopropyl-4-thiazolyl)methyl)amino)carbonyl)-L-valinyl)amino)-2-(3S-tetrahydrofuran-3-yl-oxycarbonyl)amino-1,6-diphenyl-3-hydroxyhexane] | 0.032 µM | 56.2 µM | 68% | – | – |
| CC(C)c1nc(CN(C)C(=O)NC(C(=O)NC(Cc2ccccc2)CC(O)C(Cc2ccccc2)NC(=O)OC2COC3OCCC23)C(C)C)cs1 [Example 51, (2S,3S,5S)-5-(N-(N-((N-Methyl-N-((2-isopropyl-4-thiazolyl)methyl)amino)carbonyl)-D-valinyl)amino)-2-((3R,3aS,6aR)-bis-tetrahydrofuran-3-yl-oxycarbonyl)amino-1,6-diphenyl-3-hydroxyhexane] | 0.012 µM | > 100 µM | 83% | – | – |
| Cc1nc(CN(C)C(=O)N[C@H](C(=O)N[C@@H](Cc2ccccc2)C[C@H](O)[C@H](Cc2ccccc2)NC(=O)OC2COC3OCCC23)C(C)C)cs1 (stereo partly drawn) [Example 52, (2S,3S,5S)-5-(N-(N-((N-Methyl-N-((2-methyl-4-thiazolyl)methyl)amino)carbonyl)-L-valinyl)amino)-2-((3R,3aS,6aR),(3S,3aR,6aS)-bis-tetrahydrofuran-3-yl-oxycarbonyl)amino-1,6-diphenyl-3-hydroxyhexane] | 0.072 µM | > 100 µM | 69% | – | – |
| O=C(N[C@@H](Cc1ccccc1)[C@@H](O)C[C@H](Cc1ccccc1)NC(=O)c1ccc(O)cc1)O[C@@H]1CO[C@@H]2OCC[C@@H]21 [Example 53, (2S,3S,5S)-5-(4-Hydroxy-benzoyl)amino-2-((3S,3aR,6aS)-bis-tetrahydrofuran-3-yl-oxycarbonyl)amino-1,6-diphenyl-3-hydroxyhexane] | 0.704 µM | > 100 µM | – | 56% | – |
| CC(=O)Oc1ccc(C(=O)N[C@@H](Cc2ccccc2)C[C@H](O)[C@H](Cc2ccccc2)NC(=O)O[C@H]2CO[C@H]3OCC[C@H]32)cc1 [Example 54, (2S,3S,5S)-5-(4-Acetoxy-benzoyl)amino-2-((3R,3aS,6aR)-bis-tetrahydrofuran-3-yl-oxycarbonyl)amino-1,6-diphenyl-3-hydroxyhexane] | 0.145 µM | > 100 µM | – | – | 50% |
| O=C(N[C@@H](Cc1ccccc1)[C@@H](O)C[C@H](Cc1ccccc1)NC(=O)c1ccc(O)cc1)O[C@H]1CO[C@H]2OCC[C@H]21 [Example 55, (2S,3S,5S)-5-(4-Hydroxy-benzoyl)amino-2-((3R,3aS,6aR)-bis-tetrahydrofuran-3-yl-oxycarbonyl)amino-1,6-diphenyl-3-hydroxyhexane] | 0.011 µM | 49.5 µM | 82% | – | – |
